Test results from patent US20160000074A1, “HERBICIDAL COMPOSITION AND METHOD OF USE THEREOF” (SYNGENTA PARTICIPATIONS AG, priority 2013, published 2016).

Experiments:
Assay in all cases: Turf selectivity evaluation, visual phytotoxicity, glasshouse pots
Type in all cases: in vivo
Settings in all cases: visual evaluation 7, 14, 21, 28 DAA
[1] = tested on: Poa pratensis (POAPR, Kentucky Bluegrass, Midnight star)
Protocol: (§1) Turf selectivity evaluations were performed on the most important cool-season turf varieties, across 4 application rates with two replications contained within a factorial design. Sarmentine was applied at 0, 1500, 3000, and 6000 g ai ha^−1 on Sep. 11, 2010 using a spray volume of 800 L ha^−1 with 0.2% V/V x-77 adjuvant. The solution was delivered with LU 90-02S Lechler nozzles at 2.58 bars with an application speed of 0.96 km hr^−1.
(§2) Plants were grown in 9 cm diameter pots using Les Barges soil, previously characterized as containing 25.4% clay; 7.1% loam, 67.5% sand, 7% CaCO3, 2.4% organic matter, and pH 7.5. Pots were fertilized with Oscarna Rasaflor at 100 g m-2 at seeding. Plants were grown throughout the experiment with day/night temperatures of 23° C./15° C. with relative humidity of between 50-60%.
(§3) Turf species (Table 1) were visually evaluated for symptoms of phytotoxicity (%) using the untreated control as a bench-mark for comparison at 7, 14, 21, and 28 days after application (DAA). Turfgrass species were mown at 13 DAA.

[2] = tested on: Agrostis stolonifera (AGSST, Creeping Bentgrass, Pennlinks)
Protocol: as §1, §2, §3

[3] = tested on: Poa annua var. Reptans (POAAN, Annual bluegrass, True Putt)
Protocol: as §1, §2, §3

[4] = tested on: Lolium perenne (LOLPE, Perennial Ryegrass, Citation Fore)
Protocol: as §1, §2, §3

[5] = tested on: Festuca arundinacea (FESAR, Tall Fescue, Farandole)
Protocol: as §1, §2, §3

[6] = rate 1500 g ai ha^-1, grass x rate estimate
[7] = rate 3000 g ai ha^-1, grass x rate estimate
[8] = rate 6000 g ai ha^-1, grass x rate estimate

Structure (SMILES): CCCCC/C=C/C=C/C(=O)N1CCCC1 [sarmentine, N-(2E,4E-Decadienoyl)pyrrolidine]
- Phyto-toxicity Estimate (% of Untreated) [1, 6]: 6.3 % of Untreated
- Phyto-toxicity Estimate (% of Untreated) [1, 7]: 8.8 % of Untreated
- Phyto-toxicity Estimate (% of Untreated) [1, 8]: 21.3 % of Untreated
- Phyto-toxicity Estimate (% of Untreated) [2, 6]: 13.1 % of Untreated
- Phyto-toxicity Estimate (% of Untreated) [2, 7]: 19.4 % of Untreated
- Phyto-toxicity Estimate (% of Untreated) [2, 8]: 27.5 % of Untreated
- Phyto-toxicity Estimate (% of Untreated) [3, 6]: 35.0 % of Untreated
- Phyto-toxicity Estimate (% of Untreated) [3, 7]: 53.8 % of Untreated
- Phyto-toxicity Estimate (% of Untreated) [3, 8]: 83.1 % of Untreated
- Phyto-toxicity Estimate (% of Untreated) [4, 6]: 15.3 % of Untreated
- Phyto-toxicity Estimate (% of Untreated) [4, 7]: 27.2 % of Untreated
- Phyto-toxicity Estimate (% of Untreated) [4, 8]: 46.3 % of Untreated
- Phyto-toxicity Estimate (% of Untreated) [5, 6]: 14.1 % of Untreated
- Phyto-toxicity Estimate (% of Untreated) [5, 7]: 22.8 % of Untreated
- Phyto-toxicity Estimate (% of Untreated) [5, 8]: 31.3 % of Untreated
